Values quoted from earlier work in patent publication US12329853B2, “Compositions and methods for treating ocular diseases” (OCULAR THERAPEUTIX, INC., priority 2020, dated 2025).

Experiments:
[1] = organic solvents typically employed for fabrication of microspheres using solvent evaporation
FP prostanoid receptor = FP prostanoid receptor (Homo sapiens, UniProt P43088)
Sequence of FP prostanoid receptor (P43088 whole entry): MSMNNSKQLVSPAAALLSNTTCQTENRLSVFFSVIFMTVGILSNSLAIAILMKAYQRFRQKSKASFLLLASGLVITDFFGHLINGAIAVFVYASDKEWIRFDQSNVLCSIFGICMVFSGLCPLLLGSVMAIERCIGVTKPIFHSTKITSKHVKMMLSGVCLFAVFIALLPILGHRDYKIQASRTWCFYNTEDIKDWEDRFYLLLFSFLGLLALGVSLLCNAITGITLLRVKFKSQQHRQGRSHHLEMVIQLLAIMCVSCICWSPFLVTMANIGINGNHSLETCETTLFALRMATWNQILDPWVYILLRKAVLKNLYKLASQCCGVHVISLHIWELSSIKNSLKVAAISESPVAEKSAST

Row | SMILES | Solubility in organic solvents [1] | Selectivity for the FP prostanoid receptor compared to latanoprost (FP prostanoid receptor) | Potency compared to latanoprost (FP prostanoid receptor; FP prostanoid receptor)
1 | CC(C)OC(=O)CCC/C=C\C[C@@H]1[C@@H](CC[C@@H](O)CCc2ccccc2)[C@H](O)C[C@@H]1O [Latanoprost] | readily soluble |  | 
2 | O=C(O)CCC/C=C\C[C@@H]1[C@@H](/C=C/[C@@H](O)COc2cccc(C(F)(F)F)c2)[C@H](O)C[C@@H]1O [free acid of travoprost] |  | greater selectivity | higher potency
